Legend:
[1] = tested on: animal model of wearing off; details: response diminished after 28 days continuous L-dopa treatment; cited from earlier work
[2] = pre-clinical studies; cited from earlier work
healthy volunteers [3] = details: 71 healthy volunteers; single doses of 10 mg/kg or 7 days of repeated doses of 5 mg/kg/day; cited from earlier work
[4] = tested on: patients affected by idiopathic early Parkinson's disease; assay: Phase II dose finding, double-blind, placebo controlled 12-week study: safety (adverse events, vital signs, ECG, laboratory); details: for related adverse events: placebo 25.0%; for percentage of patients with adverse events: placebo 50.0%
Procedure: Safety was monitored by adverse events, vital signs, 12-lead ECG and clinical laboratory variables.
Patients were assigned to the study treatment group as randomized.
The analyses based on the safety cohort were performed for the safety parameters, demographic data and the most important baseline characteristics which were defined in the analysis plan.
Incidences of adverse events were calculated overall, by body system and by preferred term. Vital sign measurements at baseline (Visit 2) were compared to further visits using the Kruskal-Wallis test. All other safety variables were analysed descriptively.

[5] = tested on: patients affected by idiopathic early Parkinson's disease; assay: Phase II dose finding, double-blind, placebo controlled 12-week study: efficacy (UPDRS section III responder rate, CGI); format: in vivo, human; details: for Non Responders, % / Responders, % / Responder rate (improvement of at least 30% in UPDRS section III): final visit; for Responder rate at final visit, %: 12 weeks, ITT cohort, versus placebo 21.4%
From the text: Mode of administration was oral, once daily; and duration of treatment was 12 weeks. The primary efficacy variable in this study was the proportion of patients considered to have achieved a response defined as an improvement of at least 30% in the unified Parkinson's disease ratings scale (UPDRS) section III score between baseline (Visit 2) and the end of the study (Visit 9 or early study termination).
The intent-to-treat (ITT) cohort was defined as all randomized patients who received at least one dose of study medication and for whom at least one UPDRS section III assessment after treatment was available.
The analysis based on the ITT Cohort was considered a primary analysis and was performed for all parameters except safety parameters.
The per-protocol (PP) cohort was defined as all patients who completed the study without major protocol violations. Minor violations not leading to exclusion from the PP cohort were defined during a blind review meeting after data cleaning. Drop-outs due to lack of efficacy and due to adverse events were not excluded from the PP cohort.
The primary efficacy variable was the percentage of patients with an improvement of at least 30% in the UPDRS section III score between baseline (Visit 2) and the end of the study (Visit 9 or early study termination). Comparison between the treatment groups was performed in the ITT analysis cohort (primary analysis) using a logistic regression model taking into account UPDRS section III score at baseline, the patient's treatment history (de-novo, single dopamine agonist alone, single dopamine agonists with a prior Parkinson's disease treatment) and the country.
The percentage of patients with an improvement of at least 30% in the UPDRS section III score at Visits 5 and 7 was analyzed using the same methods as for the primary efficacy variable.

primates = details: after 12 week daily administration; cited from earlier work
MAO-B = details: cited from earlier work
healthy volunteers [6] = details: in vivo; cited from earlier work
rodents given MPTP = details: cited from earlier work
[7] = De Novo subgroup (N = 66), Safinamide 0.5 mg/kg
[8] = De Novo subgroup (N = 66), Safinamide 1.0 mg/kg

SMILES: C[C@H](NCc1ccc(OCc2cccc(F)c2)cc1)C(N)=O [Safinamide, (+)-(S)-2-[[p-[(m-fluorobenzyl)oxy]-benzyl]amino]propionamide]
- motor effect in response to L-dopa [1]: restores the efficacy and duration of the motor effect
- anticonvulsant activity [2]: broad spectrum of anticonvulsant activity
- side effects (healthy volunteers [3]): did not produce any clinically relevant side effect
- overall safety (other vital signs, ECG recordings, laboratory parameters) ([4]; 0.5 and 1.0 mg/kg, 12 weeks): no safety concerns were raised
- mean heart rate, change from baseline to the final visit ([4]; other treatment groups (safinamide 0.5 mg/kg, placebo)): a decrease was observed
- tremor aggravated (nervous system disorders, most frequent adverse event) ([4]; safinamide 0.5 mg/kg group): 3.6 % of patients
- patients who experienced serious adverse events ([4]; safinamide 0.5 mg/kg group (atrial fibrillation, pregnancy), unlikely related or not related): Two
- related adverse events ([4]; safinamide 0.5 mg/kg group): 12.5 % of patients
- percentage of patients with adverse events ([4]; safinamide 0.5 mg/kg group): 37.5 % of patients
- nausea (gastrointestinal system disorders, most frequent adverse event) ([4]; safinamide 1.0 mg/kg group): 3.6 % of patients
- patients who experienced serious adverse events ([4]; safinamide 1.0 mg/kg group (myasthenia gravis), not related): one
- mean heart rate, change from baseline to the final visit ([4]; safinamide 1.0 mg/kg group, p=0.037, Kruskal-Wallis test): increased
- related adverse events ([4]; safinamide 1.0 mg/kg group): 10.7 % of patients
- percentage of patients with adverse events ([4]; safinamide 1.0 mg/kg group): 32.1 % of patients
- deaths ([4]; whole study, 0.5 and 1.0 mg/kg groups): No deaths were reported
- Non Responders, % [5, 7]: 77.3%
- Responders, % [5, 7]: 22.7%
- Non Responders, % [5, 8]: 77.3%
- Responders, % [5, 8]: 22.7%
- Responder rate at final visit, % ([5]; Safinamide 0.5 mg/kg oral once daily, group N = 55, p 0.132): 30.9%
- Responder rate at final visit, % ([5]; Safinamide 1.0 mg/kg oral once daily, group N = 56, p 0.016): 37.5%
- Non Responders, % ([5]; Single DA subgroup (N = 101), Safinamide 0.5 mg/kg add-on): 63.6%
- Non Responders, % ([5]; Single DA subgroup (N = 101), Safinamide 1.0 mg/kg add-on): 52.9%
- Responders, % ([5]; Single DA subgroup (N = 101; stable dopamine agonist treatment), Safinamide 0.5 mg/kg add-on, placebo 20.6%): 36.4%
- Responders, % ([5]; Single DA subgroup (N = 101; stable dopamine agonist treatment), Safinamide 1.0 mg/kg add-on, placebo 20.6%, P = 0.024): 47.1%
- Responder rate (improvement of at least 30% in UPDRS section III) ([5]; patients who received a single dopamine agonist alone, 0.5 mg safinamide, placebo 25.0%): 33.3%
- Responder rate (improvement of at least 30% in UPDRS section III) ([5]; patients who received a single dopamine agonist alone, 1.0 mg safinamide, placebo 25.0%): 50.0%
- Responder rate (improvement of at least 30% in UPDRS section III) ([5]; patients with a dopamine agonist with a prior Parkinson's disease treatment, 0.5 mg safinamide, placebo 14.3%): 40.0%
- Responder rate (improvement of at least 30% in UPDRS section III) ([5]; patients with a dopamine agonist with a prior Parkinson's disease treatment, 1.0 mg safinamide, placebo 14.3%): 43.8%
- changes in CGI part I between baseline (Visit 2) and Visit 6 ([5]; safinamide 0.5 mg/kg group versus other groups, p=0.049, Fisher's exact test): better outcome
- average improvement of patients ([5]; safinamide added to a stabilized dose of a variety of dopamine agonists): 27.8%
- average improvement of patients ([5]; safinamide administered alone): 6.9%
- neostriatal dopamine (primates): significant increase of neostriatal dopamine with increased turnover
- inhibition of MAO-B activity (MAO-B): potent, reversible inhibitor
- amount of i.v. tyramine to raise BP by 30 mm Hg, compared to placebo (cheese effect) (healthy volunteers [6]): equal or greater amount of i.v. tyramine was required
- nigral neuronal death (rodents given MPTP; given 4 h after the toxin (MPTP) administration): capable of preventing nigral neuronal death
- neostriatal dopamine depletion (rodents given MPTP; given prior to the administration of MPTP): prevented neostriatal dopamine depletion
